“Also recorded” adds a separate entry of the source.
What was measured:
CD133^high cells [1] = assay: cytotoxicity assay (drug sensitivity) after LNA transfection; type: cell-based, human; conditions: DOX 0.4 μM or CDDP 5 μM, 48 h, 24 h after transfection
Procedure: Cell proliferation and cytotoxity assay. Cell proliferation rates and cell viability as an indicator for the relative sensitivity of the cells to doxorubicin, cisplatin, and methotrexate were determined using TetraColor ONE Cell proliferation Assay System (Seikagaku) according to the manufacturer's instructions. […] Triplicate wells were used for each treatment group. Absorbance was measured at 450 nm with a reference wavelength at 650 nm on EnVision (Wallac). The relative number of viable cells was expressed as the percent of cell viability.
(§1) Transfection with synthetic miRNAs, LNAs, and siRNAs. Synthetic hsa-miRs (Pre-miR-hsa-miR-1, -10b, -133a, and negative control (NC; Applied Biosystems, Table 2) and locked nucleic acids (LNAs) (LNA-1, -10b, -133a, and negative control, Exiqon, Table 3) were transfected into each type of cells at 30 nM each (final concentration) using DharmaFECT 1(GE Healthcare). Synthetic siRNAs (Bonac corporation, Table 4) were transfected into each type of cells at 100 nM each (final concentration) using DharmaFECT 1 (GE Healthcare). After 24 hours of incubation, cells were treated with chemotherapeutic agents for cytotoxicity assay or reseeded into invasion chambers for invasion assay.

[2] = system: CD133^high SaOS2 and HOS cells; assay: cell proliferation after LNA transfection; type: cell-based, human; conditions: day 4 after transfection
Procedure: Cell proliferation and cytotoxity assay. Cell proliferation rates and cell viability as an indicator for the relative sensitivity of the cells to doxorubicin, cisplatin, and methotrexate were determined using TetraColor ONE Cell proliferation Assay System (Seikagaku) according to the manufacturer's instructions. Cells growing in the logarithmic phase were seeded in 96-well plates (5×10^3/well), allowed to attach overnight, and then were treated with varying doses of doxorubicin (Sigma), cisplatin (Alexis), and methotrexate (Sigma) for 72 h. Triplicate wells were used for each treatment group. Absorbance was measured at 450 nm with a reference wavelength at 650 nm on EnVision (Wallac). The relative number of viable cells was expressed as the percent of cell viability.
(§2) Transfection with synthetic miRNAs, LNAs, and siRNAs. […]

[3] = assessment of toxicity in LNA-treated tumor-bearing mice; type: in vivo; conditions: during the observation period
Procedure: (§3) Monitoring tumor growth, lung metastasis, and toxicity with/without LAN-anti-miR-133a. For the assessment of tumorigenicity between CD133^high and CD133^low HOS-Luc cells, NOD/SCID mice were injected with D-luciferin (150 mg/kg, Promega) by intraperitoneal injection. Ten minutes later, photons from firefly luciferase were counted using the IVIS imaging system (Xenogen Corp.) according to the manufacturer's instructions. Each experimental condition included 5 animals per group and monitoring once a week. For the evaluation of LNA-anti-miR-133a administration into spontaneous lung metastasis of osteosarcoma model mice, individual mice were injected with 10 mg/kg of LNA-anti-miR-133a or saline via the tail vain. LNA were injected on following days 4, 11, 18, 25, 32 postinoculation of 143B-Luc cells. Each experimental condition included 10 animals per group. The development of subsequent lung metastasis was monitored once a week in vivo by the bioluminescent imaging described above for 5 weeks. All data were analyzed using LivingImage software (version 2.50, Xenogen). On day 36, the primary tumor and lung in 5 mice of each group were resected at necropsy for their weight, bioluminescent, and histological analyses. The blood examination, weight of whole body as well as heart, liver, and skeletal muscle, and histopathological examination were performed for the assessment of toxicity.

143B-luc = assay: spontaneous lung metastasis model of osteosarcoma (143B-luc implanted orthotopically into tibia); type: in vivo, athymic nude mice
Procedure: Tumor transplantation experiments. Animal experiments were performed in compliance with the guidelines of the Institute for Laboratory Animal Research, National Cancer Center Research Institute. Athymic nude mice or NOD/SCID mice (CLEA Japan) were purchased at 4 weeks of age and given at least 1 week to adapt to their new environment prior to tumor transplantation. On day 0, mice were anesthetized with 3% isoflurane and the right leg disinfected with 70% ethanol. Cells were aspirated into a 1 mL tuberculin syringe fitted with a 27-G needle. The needle was inserted through the cortex of the anterior tuberosity of the tibia with a rotating movement to avoid cortical fracture. Once the bone was traversed, the needle was inserted further to fracture the posterior cortex of the tibia. A 100 μL volume of solution containing freshly isolated CD133^high and CD133^low HOS-Luc (10^2, 10^3, 10^4, 10^5 cells per site) or 143B-Luc (1.5×10^6) was injected while slowly moving back the needle.
as §3
To extend the in vitro findings and to determine whether silencing of miR-133a could be an effective therapeutic option for osteosarcoma treatment, the effect of LNA-133a on a spontaneous lung metastasis model of osteosarcoma was examined. Experimentally, 1.5×10^6 cells of 143B transfected with firefly luciferase gene (143B-luc) were implanted orthotopically into the right proximal tibia of athymic nude mice. The implanted tumor growth and the presence of distant metastases were analyzed weekly for luciferase bioluminescence using an in vivo imaging system (IVIS). […] To assess the efficacy of the new treatment protocol, results were compared with three control groups (n=10 each): a saline control group, an LNA group, and a CDDP group. At 5 weeks, half the mice in each group were euthanized for further analysis; the remaining mice were monitored for survival.

miR-133a [4] = assay: miR-133a expression in 143B-luc tumors (qRT-PCR); type: in vivo, human; conditions: vs saline-treated mice
Description: RNA isolation and quantitative real-time RT-PCR of mRNAs and miRNAs. Total RNA was purified from cells and tumor tissues with an RNeasy Mini Kit and RNase-Free DNase Set (QIAGEN). For quantitative polymerase chain reaction (qPCR) of mRNAs, cDNA was synthesized using High-Capacity cDNA Reverse Transcription Kit (Applied Biosystems). For each qPCR reaction, equal amounts of cDNA were mixed with Platinum SYBER Green qPCR SuperMix (Invitrogen) and specific primers (Table 1). Gene expression levels were normalized by beta actin (ACTB) or glyceraldehyde 3-phosphate dehydrogenase (GAPDH). For qPCR of miRNAs, miRNA was converted to cDNA using the TaqMan MicroRNA Reverse Transcription Kit (Applied Biosystems). […]
To extend the in vitro findings and to determine whether silencing of miR-133a could be an effective therapeutic option for osteosarcoma treatment, the effect of LNA-133a on a spontaneous lung metastasis model of osteosarcoma was examined. […] The implanted tumor growth and the presence of distant metastases were analyzed weekly for luciferase bioluminescence using an in vivo imaging system (IVIS). […] At 5 weeks, half the mice in each group were euthanized for further analysis; the remaining mice were monitored for survival.

[5] = system: CD133^high SaOS2 and HOS populations; assay: invasion assay after LNA transfection; type: cell-based, human
Procedure: Invasion assay. Invasion assays were performed by using 24-well BD BioCoat Invasion Chambers with Matrigel (Becton-Dickinson). 1×10^5 cells, suspended in 500 μL DMEM or RPMI 1640 medium without FBS, were added to the upper chamber, and DMEM or RPMI 1640 medium with 10% FBS was added to the lower chamber. After incubation for 24 h or 36 h, the cells on the upper surface of the filter were completely removed by wiping them with cotton swabs. The filters were fixed in methanol and stained with 1% toluidine blue in 1% sodium tetraborate (Sysmex). Filters were then mounted onto slides, and cells on lower surfaces were counted. Each assay was performed in triplicate.
as §1

CD133^high cells [6] = assay: qPCR of genes associated with stemness, drug resistance and metastasis after LNA transfection; type: cell-based, human; conditions: β-actin internal control
Description: (§4) RNA isolation and quantitative real-time RT-PCR of mRNAs and miRNAs. Total RNA was purified from cells and tumor tissues with an RNeasy Mini Kit and RNase-Free DNase Set (QIAGEN). For quantitative polymerase chain reaction (qPCR) of mRNAs, cDNA was synthesized using High-Capacity cDNA Reverse Transcription Kit (Applied Biosystems). For each qPCR reaction, equal amounts of cDNA were mixed with Platinum SYBER Green qPCR SuperMix (Invitrogen) and specific primers (Table 1). Gene expression levels were normalized by beta actin (ACTB) or glyceraldehyde 3-phosphate dehydrogenase (GAPDH). For qPCR of miRNAs, miRNA was converted to cDNA using the TaqMan MicroRNA Reverse Transcription Kit (Applied Biosystems). RNU6B small nuclear RNA was amplified as an internal control. qPCR was performed using each miRNA-specific probe included with the TaqMan MicroRNA Assay on a Real-Time PCR System 7300 and SDS software (Applied Biosystems).
as §2

SGMS2 = SGMS2 mRNA in 143B-luc tumors of LNA-133a-treated mice; type: in vivo, human
Description: as §4
Monitoring tumor growth, lung metastasis, and toxicity with/without LAN-anti-miR-133a. […] Ten minutes later, photons from firefly luciferase were counted using the IVIS imaging system (Xenogen Corp.) according to the manufacturer's instructions. […] The development of subsequent lung metastasis was monitored once a week in vivo by the bioluminescent imaging described above for 5 weeks. All data were analyzed using LivingImage software (version 2.50, Xenogen). […]

CD133^high cells [7] = assay: apoptotic cell count (Hoechst staining) after LNA transfection; type: cell-based, human; conditions: compared to control CD133high cells; CDDP 5 μM, 48 h
miR-133a [8] = assay: silencing of miR-133a in LNA-transfected CD133high cells (real-time RT-PCR); type: cell-based, human; conditions: CD133high SaOS2 and HOS cells, LNA 30 nM
Description: as §4, §2

Substance: LNA-133a: locked nucleic acid antisense to hsa-miR-133a-1, 5′-CAGCTGGTTGAAGGGGACCAA-3′ (Exiqon) (LNA-modified oligonucleotide from Exiqon, pattern not given here)
- sensitivity to DOX and CDDP (cell viability) (CD133^high cells [1]): enhanced sensitivity to DOX and CDDP
- proliferation rate [2]: suppressed in proliferation rate to the same level of CD133^low cells transfected with LNA-NC
- toxic effects on various tissue including heart, liver, and skeletal muscle [3]: minimal toxic effects
- Luminescence of lung (mean) (143B-luc; IVIS bioluminescence): 1744
- Lung metastasis (mice with metastasis / mice in group) (143B-luc; day 35): 7/10
- Tumor weight (mean) (143B-luc; day 36, LNA-133a 10 mg kg-1 i.v., CDDP i.p.): 3.143 g
- expression of miR-133a of tumors (miR-133a [4]): reduced miR-133a levels; also recorded: decreased
- invasiveness [5]: decreased the invasiveness
- expression of the molecules associated with CD133high phenotypes (CD133^high cells [6]): decreased
- expression of mRNA for SGMS2 (SGMS2): increased expression
- apoptotic cell death rate (CD133^high cells [7]): significantly higher apoptotic cell death rate
- efficacy for the silencing of miR-133a (miR-133a [8]): confirmed; also recorded: knock-down

Reference: patent US11260072B2, “MicroRNA-based methods and assays for osteocarcinoma” (3-D Matrix, Ltd., priority 2011, dated 2022)
